From ChEMBL document CHEMBL1201862, “PubChem BioAssay data set” (2004)
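Grown in 96-well plates, cells were treated for 48 hours with each compound at five concentrations. Insufficient inhibition: endpoint recorded as highest concentration tested. GI50 marks 50% less growth.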 The source made the active and inactive calls. Rule as the data show it: active = GI50 up to about 1.1 µM and inactive = higher.

Assays:
Assay in all cases: NCI tumour cell line growth inhibition, 48 h
786-0 = tested on: 786-0
HOP-62 = tested on: HOP-62
DU-145 = tested on: DU-145
OVCAR-5 = tested on: OVCAR-5
OVCAR-4 = tested on: OVCAR-4
COLO 205 = tested on: COLO 205
SW-620 = tested on: SW-620
UACC-62 = tested on: UACC-62
RPMI-8226 = tested on: RPMI-8226
CCRF-CEM = tested on: CCRF-CEM
NCI-H522 = tested on: NCI-H522
RXF 393 = tested on: RXF 393
SF-295 = tested on: SF-295
KM12 = tested on: KM12
NCI-H460 = tested on: NCI-H460
SK-MEL-28 = tested on: SK-MEL-28
Malme-3M = tested on: Malme-3M
EKVX = tested on: EKVX
MDA-MB-435 = tested on: MDA-MB-435
MDA-MB-231 = tested on: MDA-MB-231

O=c1c2cc(-c3ccccc3)sc2nc2n1N=C(c1ccc(Cl)cc1)CS2
GI50 (786-0): > 100 µM (inactive) | GI50 (HOP-62): > 100 µM (inactive) | GI50 (DU-145): > 100 µM (inactive) | GI50 (OVCAR-5): > 100 µM (inactive) | GI50 (OVCAR-4): > 100 µM (inactive) | GI50 (COLO 205): > 100 µM (inactive) | GI50 (SW-620): > 100 µM (inactive) | GI50 (UACC-62): > 100 µM (inactive) | GI50 (RPMI-8226): > 100 µM (inactive) | GI50 (CCRF-CEM): > 100 µM (inactive) | GI50 (NCI-H522): > 100 µM (inactive) | GI50 (RXF 393): > 100 µM (inactive) | GI50 (SF-295): > 100 µM (inactive) | GI50 (KM12): > 100 µM (inactive) | GI50 (NCI-H460): > 100 µM (inactive) | GI50 (SK-MEL-28): > 100 µM (inactive) | GI50 (Malme-3M): > 100 µM (inactive) | GI50 (EKVX): > 100 µM (inactive) | GI50 (MDA-MB-435): > 100 µM (inactive) | GI50 (MDA-MB-231): > 100 µM (inactive)

O=C(c1ccccc1)n1c(Cc2ccccc2)nc2cc(C34CC5CC(CC(C5)C3)C4)ccc21
GI50 (786-0): 61.9 µM (inactive) | GI50 (HOP-62): 56.4 µM (inactive) | GI50 (DU-145): 56.5 µM (inactive) | GI50 (OVCAR-5): 56.8 µM (inactive) | GI50 (OVCAR-4): > 100 µM (inactive) | GI50 (COLO 205): 27.7 µM (inactive) | GI50 (SW-620): 80.7 µM (inactive) | GI50 (UACC-62): 48.6 µM (inactive) | GI50 (RPMI-8226): 31.8 µM (inactive) | GI50 (CCRF-CEM): 50.5 µM (inactive) | GI50 (NCI-H522): 37.3 µM (inactive) | GI50 (RXF 393): 27.4 µM (inactive) | GI50 (SF-295): 52.2 µM (inactive) | GI50 (KM12): 69.7 µM (inactive) | GI50 (NCI-H460): 52.7 µM (inactive) | GI50 (SK-MEL-28): 84.3 µM (inactive) | GI50 (Malme-3M): 29.3 µM (inactive) | GI50 (EKVX): 81.8 µM (inactive) | GI50 (MDA-MB-435): 92 µM (inactive) | GI50 (MDA-MB-231): 54.2 µM (inactive)

O=C1c2ccccc2C(=O)c2c1ccc1c3ccccc3n(-c3ccccc3)c21
GI50 (786-0): 21.3 µM (inactive) | GI50 (HOP-62): 49.5 µM (inactive) | GI50 (DU-145): 18.7 µM (inactive) | GI50 (OVCAR-5): 27 µM (inactive) | GI50 (OVCAR-4): 18.8 µM (inactive) | GI50 (COLO 205): 16.9 µM (inactive) | GI50 (SW-620): 15.8 µM (inactive) | GI50 (UACC-62): 14.7 µM (inactive) | GI50 (RPMI-8226): 7.24 µM (inactive) | GI50 (CCRF-CEM): 2.85 µM (inactive) | GI50 (NCI-H522): 15.4 µM (inactive) | GI50 (RXF 393): 14.1 µM (inactive) | GI50 (SF-295): 18.2 µM (inactive) | GI50 (KM12): 29.2 µM (inactive) | GI50 (NCI-H460): 27.2 µM (inactive) | GI50 (SK-MEL-28): 17.9 µM (inactive) | GI50 (Malme-3M): 28.7 µM (inactive) | GI50 (EKVX): 41.3 µM (inactive) | GI50 (MDA-MB-435): 9.31 µM (inactive) | GI50 (MDA-MB-231): 22.4 µM (inactive)

CN(O)C(=S)c1ccccc1
GI50 (786-0): 1.38 µM (inactive) | GI50 (HOP-62): 11.4 µM (inactive) | GI50 (DU-145): 41.2 µM (inactive) | GI50 (OVCAR-5): 78.5 µM (inactive) | GI50 (OVCAR-4): 1.88 µM (inactive) | GI50 (COLO 205): 0.379 µM (active) | GI50 (SW-620): 1.25 µM (inactive) | GI50 (UACC-62): 1.85 µM (inactive) | GI50 (RPMI-8226): 0.325 µM (active) | GI50 (CCRF-CEM): 0.105 µM (active) | GI50 (NCI-H522): 0.0944 µM (active) | GI50 (RXF 393): 3.19 µM (inactive) | GI50 (SF-295): 3.48 µM (inactive) | GI50 (KM12): 5.86 µM (inactive) | GI50 (NCI-H460): 2.9 µM (inactive) | GI50 (SK-MEL-28): 3.31 µM (inactive) | GI50 (Malme-3M): 7.82 µM (inactive) | GI50 (EKVX): 15.5 µM (inactive) | GI50 (MDA-MB-435): 3.38 µM (inactive) | GI50 (MDA-MB-231): 9.33 µM (inactive)

COc1cc2c(cc1OC)-c1cc3ccccc3c(=O)n1CCC2
GI50 (786-0): 6.97 µM (inactive) | GI50 (HOP-62): 12 µM (inactive) | GI50 (DU-145): 10.7 µM (inactive) | GI50 (OVCAR-5): 45.7 µM (inactive) | GI50 (OVCAR-4): 24.6 µM (inactive) | GI50 (COLO 205): 8.47 µM (inactive) | GI50 (SW-620): 8.32 µM (inactive) | GI50 (UACC-62): 11.4 µM (inactive) | GI50 (RPMI-8226): 7.91 µM (inactive) | GI50 (CCRF-CEM): 6.73 µM (inactive) | GI50 (NCI-H522): 9.25 µM (inactive) | GI50 (RXF 393): 5.02 µM (inactive) | GI50 (SF-295): 11.1 µM (inactive) | GI50 (KM12): 8.47 µM (inactive) | GI50 (NCI-H460): 1.76 µM (inactive) | GI50 (SK-MEL-28): 17.9 µM (inactive) | GI50 (Malme-3M): 20 µM (inactive) | GI50 (EKVX): 21.9 µM (inactive) | GI50 (MDA-MB-435): 5.69 µM (inactive) | GI50 (MDA-MB-231): 5.47 µM (inactive)

CC/C(Cl)=N\OC(=O)Nc1ccc(OC)c(C)c1
GI50 (786-0): 12.5 µM (inactive) | GI50 (HOP-62): 34.4 µM (inactive) | GI50 (DU-145): 28 µM (inactive) | GI50 (OVCAR-5): 30.5 µM (inactive) | GI50 (OVCAR-4): 16.2 µM (inactive) | GI50 (COLO 205): 15.1 µM (inactive) | GI50 (SW-620): 24.3 µM (inactive) | GI50 (UACC-62): 15 µM (inactive) | GI50 (RPMI-8226): 11.9 µM (inactive) | GI50 (CCRF-CEM): 4.93 µM (inactive) | GI50 (NCI-H522): 2.21 µM (inactive) | GI50 (RXF 393): 14.6 µM (inactive) | GI50 (SF-295): 80.4 µM (inactive) | GI50 (KM12): 23.8 µM (inactive) | GI50 (NCI-H460): 41.2 µM (inactive) | GI50 (SK-MEL-28): 23.2 µM (inactive) | GI50 (Malme-3M): 11.4 µM (inactive) | GI50 (EKVX): 3.15 µM (inactive) | GI50 (MDA-MB-435): 34.2 µM (inactive) | GI50 (MDA-MB-231): 30.6 µM (inactive)

CC(C)(C)N(Cc1ccccc1)C(=O)/C=C\[S+]([O-])c1ccccc1 (stereo not given)
GI50 (786-0): 1.83 µM (inactive) | GI50 (HOP-62): 8.24 µM (inactive) | GI50 (DU-145): 3.85 µM (inactive) | GI50 (OVCAR-5): 13.6 µM (inactive) | GI50 (OVCAR-4): 2.32 µM (inactive) | GI50 (COLO 205): 4.72 µM (inactive) | GI50 (SW-620): 2.15 µM (inactive) | GI50 (UACC-62): 4.39 µM (inactive) | GI50 (RPMI-8226): 1.84 µM (inactive) | GI50 (CCRF-CEM): 1.35 µM (inactive) | GI50 (NCI-H522): 1.19 µM (inactive) | GI50 (RXF 393): 3.8 µM (inactive) | GI50 (SF-295): 13.4 µM (inactive) | GI50 (KM12): 5.69 µM (inactive) | GI50 (NCI-H460): 4.1 µM (inactive) | GI50 (SK-MEL-28): 7.73 µM (inactive) | GI50 (Malme-3M): 1.69 µM (inactive) | GI50 (EKVX): 10.5 µM (inactive) | GI50 (MDA-MB-435): 2.65 µM (inactive) | GI50 (MDA-MB-231): 3.27 µM (inactive)
